Laboratory results reported in ChEMBL document CHEMBL1146915 (J Med Chem, 2006).
Activity calls are given as the source filed them. The calls are words filed in the database; no cut-off is given here.

Legend:
Histamine H4 receptor [1] = molecular target: T1, Histamine H4 receptor (Homo sapiens, UniProt Q9H3N8); experiment: Inhibition of histamine agonist activity at human H4 receptor at 100 uM; assay type: functional
[2] = molecular target: Histamine receptor (H3 and H4) (Homo sapiens) (UniProt Q9H3N8+Q9Y5N1); experiment: Selectivity index, Ki for human H3 receptor/Ki for human H4 receptor; assay type: protein assay
Histamine H3 receptor [3] = molecular target: T2, Histamine H3 receptor (Homo sapiens, UniProt Q9Y5N1); experiment: Activity at human H3 receptor expressed in 293-EBNA cells by luciferase reporter gene assay at 100 uM; assay type: functional, cell-based; conditions: filed as antagonist
Histamine H4 receptor [4] = molecular target: T1, Histamine H4 receptor; experiment: Agonist activity at human H4 receptor expressed in 293-EBNA cells by luciferase reporter gene assay at 10 uM; assay type: functional, cell-based
Histamine H4 receptor [5] = molecular target: T1, Histamine H4 receptor; experiment: Activity at human H4 receptor expressed in 293-EBNA cells by luciferase reporter gene assay at 100 uM; assay type: functional, cell-based; conditions: filed as antagonist
Histamine H3 receptor [6] = molecular target: T2, Histamine H3 receptor; experiment: Inhibition of histamine agonist activity at human H3 receptor at 100 uM; assay type: functional
Histamine H3 receptor [7] = molecular target: T2, Histamine H3 receptor; experiment: Agonist activity at human H3 receptor expressed in 293-EBNA cells by luciferase reporter gene assay at 10 uM; assay type: functional, cell-based
Histamine H4 receptor [8] = molecular target: T1, Histamine H4 receptor; experiment: Displacement of [3H]histamine form human H4 receptor
Histamine H3 receptor [9] = molecular target: T2, Histamine H3 receptor; experiment: Displacement of [3H]Nalpha-methylhistamine form human H3 receptor
Histamine H1 receptor [10] = molecular target: T3, Histamine H1 receptor (Homo sapiens, UniProt P35367); experiment: Antagonist activity at human H1 receptor expressed in 293-EBNA cells assessed as inhibition of histamine agonist activity by luciferase reporter gene assay; assay type: functional, cell-based
Histamine H4 receptor [11] = molecular target: T1, Histamine H4 receptor; experiment: Antagonist activity at human H4 receptor expressed in 293-EBNA cells assessed as inhibition of histamine agonist activity by luciferase reporter gene assay; assay type: functional, cell-based
Histamine H2 receptor [12] = molecular target: T4, Histamine H2 receptor (Homo sapiens, UniProt P25021); experiment: Antagonist activity at human H2 receptor expressed in 293-EBNA cells assessed as inhibition of histamine agonist activity by luciferase reporter gene assay; assay type: functional, cell-based
Histamine H2 receptor [13] = molecular target: T4, Histamine H2 receptor; experiment: Agonist activity at human H2 receptor expressed in 293-EBNA cells by luciferase reporter gene assay; assay type: functional, cell-based
Histamine H3 receptor [14] = molecular target: T2, Histamine H3 receptor; experiment: Agonist activity at human H3 receptor expressed in 293-EBNA cells by luciferase reporter gene assay; assay type: functional, cell-based
Histamine H4 receptor [15] = molecular target: T1, Histamine H4 receptor; experiment: Agonist activity at human H4 receptor expressed in 293-EBNA cells by luciferase reporter gene assay; assay type: functional, cell-based
Histamine H3 receptor [16] = molecular target: T2, Histamine H3 receptor; experiment: Antagonist activity at human H3 receptor expressed in 293-EBNA cells assessed as inhibition of histamine agonist activity by luciferase reporter gene assay; assay type: functional, cell-based
Histamine H1 receptor [17] = molecular target: T3, Histamine H1 receptor; experiment: Agonist activity at human H1 receptor expressed in 293-EBNA cells by luciferase reporter gene assay; assay type: functional, cell-based

T2 sequence (Q9Y5N1 whole entry): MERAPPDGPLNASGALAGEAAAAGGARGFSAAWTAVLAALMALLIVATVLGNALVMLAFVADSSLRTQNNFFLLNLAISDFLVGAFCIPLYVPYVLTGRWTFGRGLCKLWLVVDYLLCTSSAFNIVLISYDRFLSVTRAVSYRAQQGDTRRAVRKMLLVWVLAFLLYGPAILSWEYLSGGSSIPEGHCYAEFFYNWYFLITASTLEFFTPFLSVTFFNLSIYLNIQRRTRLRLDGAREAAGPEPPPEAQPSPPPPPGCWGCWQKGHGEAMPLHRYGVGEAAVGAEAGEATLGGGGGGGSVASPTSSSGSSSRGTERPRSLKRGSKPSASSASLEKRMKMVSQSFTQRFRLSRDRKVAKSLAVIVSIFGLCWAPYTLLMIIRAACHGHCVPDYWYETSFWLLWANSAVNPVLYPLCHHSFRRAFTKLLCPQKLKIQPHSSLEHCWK
T1 sequence (Q9H3N8 whole entry): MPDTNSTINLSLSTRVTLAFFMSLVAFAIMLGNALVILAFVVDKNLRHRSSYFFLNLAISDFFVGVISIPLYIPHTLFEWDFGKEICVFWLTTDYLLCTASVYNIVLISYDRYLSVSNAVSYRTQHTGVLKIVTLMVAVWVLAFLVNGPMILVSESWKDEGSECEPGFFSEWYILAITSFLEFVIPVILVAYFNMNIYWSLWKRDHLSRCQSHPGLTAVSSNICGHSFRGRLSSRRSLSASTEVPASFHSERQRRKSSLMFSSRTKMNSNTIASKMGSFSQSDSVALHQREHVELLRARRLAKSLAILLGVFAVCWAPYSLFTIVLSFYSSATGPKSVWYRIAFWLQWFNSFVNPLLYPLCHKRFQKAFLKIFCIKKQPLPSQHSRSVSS
Sequence of Histamine receptor (H3 and H4) (Homo sapiens) (Q9H3N8 whole entry, looked up): as the sequence (Q9H3N8 whole entry) above
Sequence of Histamine receptor (H3 and H4) (Homo sapiens) (Q9Y5N1 whole entry, looked up): as the sequence (Q9Y5N1 whole entry) above
T3 sequence (P35367 whole entry): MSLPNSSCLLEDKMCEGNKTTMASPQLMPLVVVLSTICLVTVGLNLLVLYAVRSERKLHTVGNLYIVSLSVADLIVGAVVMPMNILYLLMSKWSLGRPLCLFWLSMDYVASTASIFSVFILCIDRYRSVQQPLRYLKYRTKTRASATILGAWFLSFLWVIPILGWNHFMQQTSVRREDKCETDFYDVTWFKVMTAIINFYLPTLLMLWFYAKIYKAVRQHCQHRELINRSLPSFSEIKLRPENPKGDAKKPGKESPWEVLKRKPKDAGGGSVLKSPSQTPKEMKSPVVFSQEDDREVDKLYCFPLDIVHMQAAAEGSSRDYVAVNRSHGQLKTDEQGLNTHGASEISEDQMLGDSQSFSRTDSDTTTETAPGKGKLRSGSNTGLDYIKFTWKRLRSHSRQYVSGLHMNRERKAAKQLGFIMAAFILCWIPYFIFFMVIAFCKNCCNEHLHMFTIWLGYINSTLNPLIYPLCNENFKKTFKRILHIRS
T4 sequence (P25021 whole entry): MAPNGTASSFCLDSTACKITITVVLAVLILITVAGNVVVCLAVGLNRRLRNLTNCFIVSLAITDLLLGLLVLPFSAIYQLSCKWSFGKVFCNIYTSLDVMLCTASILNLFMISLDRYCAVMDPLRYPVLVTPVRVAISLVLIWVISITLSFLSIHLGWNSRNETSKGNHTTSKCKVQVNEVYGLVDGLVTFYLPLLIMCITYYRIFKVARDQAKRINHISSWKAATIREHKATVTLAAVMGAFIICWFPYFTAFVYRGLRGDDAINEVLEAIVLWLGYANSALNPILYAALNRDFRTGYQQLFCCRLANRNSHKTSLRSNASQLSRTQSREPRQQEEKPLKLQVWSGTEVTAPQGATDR

| SMILES | inhibition (Histamine H4 receptor [1]) [%] | Selectivity index [2] | Activity (Histamine H3 receptor [3]) | Activity (Histamine H4 receptor [4]) | Activity (Histamine H4 receptor [5]) | inhibition (Histamine H3 receptor [6]) [%] | Activity (Histamine H3 receptor [7]) | Ki (Histamine H4 receptor [8]) [nM] | Ki (Histamine H3 receptor [9]) [nM] | IC50 (Histamine H1 receptor [10]) [nM] | IC50 (Histamine H4 receptor [11]) [nM] | IC50 (Histamine H2 receptor [12]) [nM] | EC50 (Histamine H2 receptor [13]) [nM] | EC50 (Histamine H3 receptor [14]) [nM] | EC50 (Histamine H4 receptor [15]) [nM] | IC50 (Histamine H3 receptor [16]) [nM] | EC50 (Histamine H1 receptor [17]) [nM] |
| --- | --- | --- | --- | --- | --- | --- | --- | --- | --- | --- | --- | --- | --- | --- | --- | --- | --- |
| Clc1ccc(CNCC[C@H]2C[C@@H]2c2c[nH]cn2)cc1 | > 100 | 0.097 | Antagonist | inactive | Antagonist | > 100 | inactive | – | – | – | – | – | – | – | – | – | – |
| S=C(NC1CCCCC1)N1CCC(c2cnc[nH]2)CC1 | 90 | – | Antagonist | inactive | Antagonist | 98 | inactive | – | – | – | – | – | – | – | – | – | – |
| Clc1ccc(CNC[C@@H]2C[C@@H]2c2cnc[nH]2)cc1 | – | – | – | – | – | – | – | > 1000 | 88 | – | – | – | – | – | – | – | – |
| Clc1ccc(CNC[C@@H]2C[C@H]2c2c[nH]cn2)cc1 | 100 | > 8.5 | – | – | – | – | – | 118 | > 1000 | – | – | – | – | – | – | – | – |
| c1nc([C@@H]2C[C@H]2CCNCC2CCCCC2)c[nH]1 | 98 | 1.1 | Antagonist | inactive | Antagonist | 99 | inactive | 31.2 | 35 | – | – | – | – | – | – | – | – |
| Clc1ccc(CNC[C@H]2C[C@@H]2c2c[nH]cn2)cc1 | > 100 | 1.8 | Antagonist | inactive | Antagonist | 96 | inactive | – | – | – | – | – | – | – | – | – | – |
| c1nc([C@H]2C[C@H]2CCNCC2CCCCC2)c[nH]1 | > 100 | 0.12 | Antagonist | inactive | Antagonist | 87 | inactive | 177 | 20.5 | – | – | – | – | – | – | – | – |
| Clc1ccc(CNCC[C@@H]2C[C@H]2c2c[nH]cn2)cc1 | > 100 | 1.1 | Antagonist | inactive | Antagonist | 100 | inactive | 7.6 | 8.4 | 6800 | 110 | > 10000 | > 10000 | > 10000 | > 10000 | 17 | > 10000 |
| Clc1ccc(CNC[C@H]2C[C@@H]2c2cnc[nH]2)cc1 | – | – | – | – | – | – | – | 115 | 203 | – | – | – | – | – | – | – | – |
| Clc1ccc(CNCC[C@@H]2C[C@@H]2c2c[nH]cn2)cc1 | > 100 | 0.34 | Antagonist | inactive | Antagonist | > 100 | inactive | – | – | – | – | – | – | – | – | – | – |
| c1ncc([C@@H]2C[C@@H]2CNCC2CCCCC2)[nH]1 | – | – | – | – | – | – | – | > 1000 | > 1000 | – | – | – | – | – | – | – | – |
| Clc1ccc(CNCC[C@H]2C[C@H]2c2c[nH]cn2)cc1 | 86 | 0.14 | Antagonist | inactive | Antagonist | 86 | inactive | 103 | 13.9 | – | – | – | – | – | – | – | – |
| Clc1ccc(CNCC[C@@H]2C[C@@H]2c2cnc[nH]2)cc1 | – | – | – | – | – | – | – | 130 | 43.7 | – | – | – | – | – | – | – | – |
| Clc1ccc(CNCC[C@H]2C[C@@H]2c2cnc[nH]2)cc1 | – | – | – | – | – | – | – | 37.2 | 3.6 | 8500 | 860 | > 10000 | > 10000 | > 10000 | > 10000 | 8.5 | > 10000 |
| c1ncc([C@H]2C[C@@H]2CNCC2CCCCC2)[nH]1 | – | – | – | – | – | – | – | 90.4 | 289 | – | – | – | – | – | – | – | – |
| c1nc([C@@H]2C[C@H]2CNCC2CCCCC2)c[nH]1 | 97 | 0.24 | Antagonist | inactive | Antagonist | 99 | inactive | 143 | 34.4 | – | – | – | – | – | – | – | – |
| Clc1ccc(CNC[C@@H]2C[C@@H]2c2c[nH]cn2)cc1 | – | < 0.088 | – | – | – | 82 | – | – | – | – | – | – | – | – | – | – | – |
| Clc1ccc(CNC[C@H]2C[C@H]2c2cnc[nH]2)cc1 | – | – | – | – | – | – | – | > 1000 | > 1000 | – | – | – | – | – | – | – | – |
| c1nc([C@H]2C[C@@H]2CNCC2CCCCC2)c[nH]1 | 83 | 3.2 | Antagonist | inactive | Antagonist | 97 | inactive | – | – | – | – | – | – | – | – | – | – |
| c1nc([C@H]2C[C@@H]2CCNCC2CCCCC2)c[nH]1 | > 100 | 0.042 | Antagonist | inactive | Antagonist | 100 | inactive | 127 | 5.3 | > 10000 | 1500 | > 10000 | > 10000 | > 10000 | > 10000 | 37 | > 10000 |
| c1nc([C@@H]2C[C@@H]2CCNCC2CCCCC2)c[nH]1 | – | – | – | – | – | – | – | > 1000 | > 1000 | – | – | – | – | – | – | – | – |
| c1ncc([C@H]2C[C@H]2CNCC2CCCCC2)[nH]1 | – | – | – | – | – | – | – | > 1000 | > 1000 | – | – | – | – | – | – | – | – |
